Reference: patent US6770738B1, “Higher order structure and binding of peptide nucleic acids” (ISIS Pharmaceuticals, Inc., priority 1992, dated 2004)
{NH2} = free C-terminal carboxamide without lysine

Experiments:
Assay type in all cases: binding
complementary RNA [1] = experiment: Melting temperature of complexes with complementary RNA; settings: 100 mM NaCl, 10 mM Na-phosphate, 0.1 mM EDTA, pH 7, 4 μM of each strand
Description: (§1) The thermal stability measured as the melting temperature, Tm, of complexes between the pentadecamer, H-TGTACGTCACAACTA-NH2 (SEQ ID NO:10) and the complementary deoxyoligonucleotide 3′-ACATGCAGTGTTGAT (SEQ ID NO:47) (termed anti-parallel orientation: amino terminal of the PNA complementary to the 3′-end of the oligonucleotide) was 69.5° C. (see Table II), whereas the Tm of the corresponding PNA-DNA complex in parallel orientation was 56.1° C. The Tm for the PNA-RNA complexes was 72.3 and 51.2° C., respectively (see Table II). The orientation preference was further settled by using two decamer PNAs, and hybridizing these to complementary oligonucleotides in both orientations. The anti-parallel orientation was preferred in all cases (see Table II). Furthermore, it is noteworthy that virtually identical Tms were obtained regardless of which strand is the PNA and which is the DNA (see Table II, 2nd & 3rd row).

[2] = test system: complementary deoxyoligonucleotide; experiment: Melting temperature of complexes with complementary DNA; settings: 100 mM NaCl, 10 mM Na-phosphate, 0.1 mM EDTA, pH 7, 4 μM of each strand
Description: as §1

[3] = test system: RNA target 5′-TAGTTGTGACGTACA-3; experiment: Equilibrium and rate constants for duplexes with RNA (gel-shift); settings: [Na+] 0.1 M, 37 ° C.; 100 mM NaCl, 10 mM phosphate, 1 mM EDTA, pH 7.0
[4] = test system: oligonucleotides 3′-d(ACATGXYZVGTTGAT) with a single base mismatch; experiment: Effect of base pair mismatches on thermal stability of PNA/DNA complexes; settings: mismatch facing GTCA; 10 mM Na-phosphate, pH 7.0, 150 mM NaCl, 1 mM MgCl2
Excerpt: To test if PNA containing all four natural nucleobases is a true DNA mimic in terms of base pair specific hybridization to complementary oligonucleotides a pentadecamer PNA was designed to contain an almost equal number of pyrimidines and purines yet having no more than two purines or pyrimidines juxtaposed. It contains an equal number of thymines and cytosines and a single guanine. Furthermore, the sequence of the pentadecamer is non-selfcomplementary and contains a GTCA sequence at the center. By measuring the thermal stability of complexes between the PNA pentadecamer and the Watson-Crick complementary oligonucleotide, as well as 12 other oligonucleotides each having a single base mismatch at one of the four center PNA nucleobases, information about PNA-DNA base pair recognition was obtained. Finally, the PNA was designed with no pyrimidine stretches so as to strongly disfavor—if not prohibit—triplex formation.
In each of the twelve other oligonucleotides, three of the bases (X,Y,Z,V) were complementary while the fourth was one of the three non-complementary nucleobases. For example, when (X=T,Y=G,Z=A) then V=A or C or G etc. Thus each of the twelve oligonucleotides contains one of the twelve possible base pair mismatches relative to the PNA pentadecamer. […] Hybridizations were performed in 10 mM Na-phosphate, pH 7.0, 150 mM NaCl, 1 mM MgCl2.

complementary RNA [5] = experiment: Thermodynamics of duplex formation with RNA
Description: (§2) Thermodynamics parameters for hybridization can be extracted from thermal stability measurements when these are performed at varying concentrations of the complexes, or from the shape of the thermal denaturation curves. Both methods were used to determine ΔH°, ΔS° and ΔG° for formation of the PNA/RNA, DNA/RNA, PNA/DNA and DNA/DNA duplexes (Table III). It is remarkable that the decrease in entropy is almost identical for the formation of DNA/DNA and PNA/DNA duplexes and that both reactions are strongly enthalpy driven.

complementary DNA = experiment: Thermodynamics of duplex formation with DNA
Description: as §2

[6] = 8 μM, average of the two methods
[7] = 8 μM, fit to modified two state model
[8] = 8 μM, linear plots of 1/TM versus log (concentration)
[9] = fit to modified two state model
[10] = fit to modified two state model, 100 mM NaCl, 10 mM Na-phosphate, 0.1 mM EDTA, pH 7.0
[11] = linear plots of 1/TM versus log (concentration)

H-TGTACGTCACAACTA-NH2 (all peptide nucleic acid (PNA), 3' {NH2}; written N- to C-terminal) [PNA TGTACGTCACAACTA]
Melting temperature Tm, PNA:RNA (anti-parallel) (complementary RNA [1]; anti-parallel): 72.3 °C
Melting temperature Tm, PNA:RNA (parallel) (complementary RNA [1]; parallel): 51.2 °C
Melting temperature Tm, PNA:DNA (anti-parallel) ([2]; anti-parallel): 69.5 °C
Melting temperature Tm, PNA:DNA (parallel) ([2]; parallel): 56.1 °C
k1 [3]: 2e+06 M⁻¹ s⁻¹
change in Tm on a Watson-Crick base pair mismatch [4]: 8-20 °C
TM (average of the two methods) (complementary RNA [5]; [6]): 72.2 °C
TM (melting curve fit) (complementary RNA [5]; [7]): 72.3 °C
TM (1/TM versus log concentration) (complementary RNA [5]; [8]): 72.2 °C
ΔG°37 (average of the two methods) (complementary RNA [5]; average of the two methods): -20.2 kcal/mol
ΔH° (average of the two methods) (complementary RNA [5]; average of the two methods): -119.1 kcal/mol
ΔS° (average of the two methods) (complementary RNA [5]; average of the two methods): −318.7 eu
ΔG°3 (melting curve fit) (complementary RNA [5]; [9]): −19.3
ΔS° (melting curve fit) (complementary RNA [5]; [9]): −291.4 eu
ΔH° (melting curve fit) (complementary RNA [5]; [10]): -109.7 kcal/mol
ΔG°37 (1/TM versus log concentration) (complementary RNA [5]; [11]): −21.2 kcal/mol
ΔH° (1/TM versus log concentration) (complementary RNA [5]; [11]): −128.5 kcal/mol
ΔS° (1/TM versus log concentration) (complementary RNA [5]; [11]): −345.9 eu
TM (average of the two methods) (complementary DNA; [6]): 68.8 °C
TM (melting curve fit) (complementary DNA; [7]): 68.9 °C
TM (1/TM versus log concentration) (complementary DNA; [8]): 68.8 °C
ΔG°37 (average of the two methods) (complementary DNA; average of the two methods): -17.9 kcal/mol
ΔH° (average of the two methods) (complementary DNA; average of the two methods): -105.0 kcal/mol
ΔS° (average of the two methods) (complementary DNA; average of the two methods): −281.1 eu
ΔG°3 (melting curve fit) (complementary DNA; [9]): −17.7
ΔS° (melting curve fit) (complementary DNA; [9]): −276.4 eu
ΔH° (melting curve fit) (complementary DNA; [10]): -103.5 kcal/mol
ΔG°37 (1/TM versus log concentration) (complementary DNA; [11]): −18.0 kcal/mol
ΔH° (1/TM versus log concentration) (complementary DNA; [11]): −106.6 kcal/mol
ΔS° (1/TM versus log concentration) (complementary DNA; [11]): −285.8 eu
